Experimental data reported in patent US4645858A, “Pentanedioic acid derivatives” (G. D. Searle & Co., priority 1985, dated 1987).

Key:
[1] = target: T1, HMG CoA reductase (Rattus norvegicus, UniProt P51639); assay: HMG CoA reductase activity assay (rat liver microsomal preparation); type: biochemical
T1 construct: The resultant supernatants are discarded and the residues suspended in half the volume of homogenization medium previously employed; from tissue; host or cells: liver of male Charles River CD rats treated with 20,25-diazacholesterol; 100,000×g pellet (microsomes) of the homogenate
T1 sequence (P51639 1-887): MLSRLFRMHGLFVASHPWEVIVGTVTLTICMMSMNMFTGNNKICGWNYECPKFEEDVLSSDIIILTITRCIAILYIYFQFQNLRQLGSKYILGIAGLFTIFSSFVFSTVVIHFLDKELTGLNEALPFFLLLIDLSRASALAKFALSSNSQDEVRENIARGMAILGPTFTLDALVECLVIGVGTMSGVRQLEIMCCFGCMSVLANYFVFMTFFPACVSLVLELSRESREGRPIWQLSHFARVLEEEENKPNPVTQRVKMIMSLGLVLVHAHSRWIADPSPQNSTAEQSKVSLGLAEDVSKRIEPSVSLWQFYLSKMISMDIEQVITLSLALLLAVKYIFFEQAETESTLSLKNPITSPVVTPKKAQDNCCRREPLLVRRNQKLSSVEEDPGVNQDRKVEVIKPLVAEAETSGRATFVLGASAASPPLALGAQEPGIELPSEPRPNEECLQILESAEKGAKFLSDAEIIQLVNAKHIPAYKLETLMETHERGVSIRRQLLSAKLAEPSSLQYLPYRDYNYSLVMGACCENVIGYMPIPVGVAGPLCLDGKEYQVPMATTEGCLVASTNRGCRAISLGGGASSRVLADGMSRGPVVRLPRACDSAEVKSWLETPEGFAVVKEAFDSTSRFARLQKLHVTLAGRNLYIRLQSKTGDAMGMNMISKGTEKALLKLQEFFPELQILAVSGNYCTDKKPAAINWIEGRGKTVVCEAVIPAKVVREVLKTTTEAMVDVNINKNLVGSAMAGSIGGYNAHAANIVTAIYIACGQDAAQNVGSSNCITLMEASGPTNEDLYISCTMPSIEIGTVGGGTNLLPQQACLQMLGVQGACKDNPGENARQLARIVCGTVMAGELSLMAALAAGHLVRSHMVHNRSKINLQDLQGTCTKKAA

[2] = tested on: male Rhesus monkey; assay: In vivo serum cholesterol test in male Rhesus monkeys; details: 60 mg/kg/day
Procedure: In vivo activity is tested as follows:
Initial serum total cholesterol, triglycerides, and lipoprotein cholesterol values are determined 3 times for each male Rhesus monkey used before treatment with a test compound begins. The test compound is administered in an initial dose of 60 mg/kg for 2 weeks and blood samples are taken to determine if rebound occurs. […] Statistical comparisons are made using the two tailed student's test.

O=C(O)CC(O)(CCCCCCCCCCC1CCCCC1)CC(=O)O
IC50 ([1]; read-out: IC50 (HMG CoA reductase inhibition)): 52 µM

O=C(O)CC(O)(CC(=O)O)CC1CCCC1
HMG CoA reductase inhibition ([1]; at concentrations at least up to 1000 μm): inactive

CC(C)(C)CCCCCCCCCCCC(O)(CC(=O)O)CC(=O)O
reduced serum cholesterol ([2]; after 14 days of treatment, Rhesus monkey): 30%

CCCCCCCCCCCCCCCC(O)(CC(=O)O)CC(=O)O
acute toxicity ([2]; Rhesus monkeys): acute toxicity in 2 of 4 monkeys
